Measurements taken from PMC13181761, “New Analogs of the Compstatin Family of Clinical Complement Inhibitors with Low Picomolar Target Affinity” (Journal of Medicinal Chemistry, 2026).
Read-outs that look alike come from different tables or passages of the source. Where a SMILES comes first, the peptide text is derived from it. Bridges are numbered along the chain shown (N, C = ends). [ ]: non-standard residue; d: D form. Bta = N[C@@H](Cc1csc2ccccc12)C(=O)O; Asu = N[C@@H](CCCCCC(=O)O)C(=O)O; Orn = NCCC[C@H](N)C(=O)O

Biological target: T1, human C3b (Homo sapiens, UniProt P01024)
T1 construct: purchased Complement Technology, Tyler, TX, USA
T1 sequence (P01024 23-667 limits assumed): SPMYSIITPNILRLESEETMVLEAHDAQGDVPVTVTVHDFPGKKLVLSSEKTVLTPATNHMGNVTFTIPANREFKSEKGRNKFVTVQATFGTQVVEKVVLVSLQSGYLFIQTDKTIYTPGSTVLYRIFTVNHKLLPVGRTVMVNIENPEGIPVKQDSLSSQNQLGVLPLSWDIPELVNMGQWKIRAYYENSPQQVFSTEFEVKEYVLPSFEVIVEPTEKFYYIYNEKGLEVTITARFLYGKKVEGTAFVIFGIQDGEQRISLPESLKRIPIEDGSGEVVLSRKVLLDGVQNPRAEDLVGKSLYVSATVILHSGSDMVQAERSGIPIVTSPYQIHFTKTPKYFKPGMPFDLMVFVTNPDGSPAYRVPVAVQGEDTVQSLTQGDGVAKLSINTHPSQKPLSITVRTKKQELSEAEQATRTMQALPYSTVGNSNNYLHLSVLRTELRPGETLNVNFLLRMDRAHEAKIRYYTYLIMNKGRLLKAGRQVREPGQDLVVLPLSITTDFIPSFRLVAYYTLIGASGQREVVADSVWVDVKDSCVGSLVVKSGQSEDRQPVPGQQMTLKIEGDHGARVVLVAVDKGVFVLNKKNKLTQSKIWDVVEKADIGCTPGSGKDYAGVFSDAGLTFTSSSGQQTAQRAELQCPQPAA
T1 sequence (P01024 749-1663 partner limits assumed): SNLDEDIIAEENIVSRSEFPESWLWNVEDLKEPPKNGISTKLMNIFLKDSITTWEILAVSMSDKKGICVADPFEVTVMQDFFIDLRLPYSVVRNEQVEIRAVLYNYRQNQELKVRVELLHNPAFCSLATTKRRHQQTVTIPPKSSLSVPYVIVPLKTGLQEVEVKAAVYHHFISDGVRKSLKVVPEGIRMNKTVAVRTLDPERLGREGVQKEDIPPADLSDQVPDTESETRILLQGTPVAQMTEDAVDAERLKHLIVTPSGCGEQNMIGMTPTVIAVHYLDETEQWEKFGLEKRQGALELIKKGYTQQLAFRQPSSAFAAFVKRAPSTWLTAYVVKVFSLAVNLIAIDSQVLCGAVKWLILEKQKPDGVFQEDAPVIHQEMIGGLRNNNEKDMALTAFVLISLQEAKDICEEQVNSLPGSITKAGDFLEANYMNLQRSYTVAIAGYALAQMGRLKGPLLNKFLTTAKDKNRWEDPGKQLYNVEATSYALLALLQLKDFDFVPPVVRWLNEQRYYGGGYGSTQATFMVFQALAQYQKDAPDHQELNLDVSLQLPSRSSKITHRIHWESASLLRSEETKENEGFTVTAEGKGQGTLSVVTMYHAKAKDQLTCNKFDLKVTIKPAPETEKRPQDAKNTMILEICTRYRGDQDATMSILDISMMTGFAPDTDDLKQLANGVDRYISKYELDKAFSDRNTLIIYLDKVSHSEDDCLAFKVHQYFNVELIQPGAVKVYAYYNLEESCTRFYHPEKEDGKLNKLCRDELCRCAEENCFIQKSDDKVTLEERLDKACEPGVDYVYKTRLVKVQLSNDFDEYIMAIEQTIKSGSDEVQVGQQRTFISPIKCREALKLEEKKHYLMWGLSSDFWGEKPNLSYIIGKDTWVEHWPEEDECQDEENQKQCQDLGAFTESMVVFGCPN
Experiment: SPR kinetic binding to immobilized human C3b
Conditions: for fold affinity drop / weaker affinity compared with Cp01: K D ratio vs Cp01
Procedure: Experiments were conducted at 25 °C in HBST buffer (10 mM HEPES, 150 mM NaCl, and 0.05% Tween-20, pH 7.4; XanTec bioanalytics). Human C3b (Complement Technology, Tyler, TX, USA) was immobilized via amine-reactive coupling. […] Individual peptide samples were injected for 120 s, followed by a 180 s dissociation phase. […] Signals from the reference cell and buffer blank injections were subtracted within each dilution series to correct for buffer effects and injection artifacts. Data were fitted to a Langmuir 1:1 binding model to calculate association (k a) and dissociation (k d) rate constants, and the equilibration constant K D is calculated based on the equation: K D = k d/k a. In the case of Cp40 derivatives and Cp60, a single-cycle approach was used for kinetic analysis by injecting 5 increasing concentrations of each compound (0.5-40 nM) consecutively without a regeneration period in between injections. Individual injections within a cycle were 120 s long with a 5 min dissociation phase between injections. […] Analog Cp40 was included in each experimental series as a reference and internal control. Signals from the reference cell and buffer blank injections were subtracted to correct for buffer effects and injection artifacts. Kinetic data were processed in BiaEvaluation (Cytiva) using single-cycle evaluation by global fitting each data set to a Langmuir 1:1 binding model. The reported kinetic parameters (Tables and ) indicate the mean values and standard deviations of three independent experiments. SPR sensorgrams are provided in the Supporting Information.

[1] = SPR screening at 2 and 1 μM, series up to 16 μM, read-out: affinity hC3b (class symbol N.B./W.B.)
[2] = SPR, 1:1 Langmuir fit, average of 3 independent experiments, SD in brackets
[3] = SPR, 1:1 Langmuir fit, average of 3 independent experiments, SD in brackets, read-out: K D, affinity hC3b

Kd [1]	fold affinity drop / weaker affinity compared with Cp01	k a, affinity hC3b [2]	k d, affinity hC3b [2]	Kd [3]	binding to C3b (result in words) (SPR)	binding to C3b (result in words) (SPR, listed as W7Bta)	SMILES
> 2000 nM							CC[C@H](C)[C@H](NC(C)=O)C(=O)N[C@H]1CSSC[C@@H](C(=O)N[C@H](C(N)=O)[C@@H](C)O)NC(=O)[C@H](CCCNC(=N)N)NC(=O)[C@H](Cc2c[nH]cn2)NC(=O)[C@H](C)NC(=O)CNC(=O)[C@H](Cc2c[nH]c3ccccc23)NC(=O)[C@H](CC(=O)O)NC(=O)[C@H](CCC(N)=O)NC(=O)[C@H](Cc2c[nH]c3ccccc23)NC(=O)[C@H](Cc2ccc(O)cc2)NC1=O [Cp01 Val3Tyr] (Ac-ICYWQDWGAHRCT-NH2; disulfide 2-12)
	~2 fold	3.0(0.8) 10^5 M^–1 s^–1	15(2) 10^–2 s^–1	502 nM			CC[C@H](C)[C@H](NC(C)=O)C(=O)N[C@H]1CSSC[C@@H](C(=O)N[C@H](C(N)=O)[C@@H](C)O)NC(=O)[C@H](CCCCN)NC(=O)[C@H](Cc2c[nH]cn2)NC(=O)[C@H](C)NC(=O)CNC(=O)[C@H](Cc2c[nH]c3ccccc23)NC(=O)[C@H](CC(=O)O)NC(=O)[C@H](CCC(N)=O)NC(=O)[C@H](Cc2c[nH]c3ccccc23)NC(=O)[C@H](C(C)C)NC1=O [Cp01-Arg11Lys] (Ac-ICVWQDWGAHKCT-NH2; disulfide 2-12)
	~2 fold	3.3(1.2) 10^5 M^–1 s^–1	16(3) 10^–2 s^–1	529 nM			CC[C@H](C)[C@H](NC(C)=O)C(=O)N[C@H]1CSSC[C@@H](C(=O)N[C@H](C(N)=O)[C@@H](C)O)NC(=O)[C@H](CO)NC(=O)[C@H](Cc2c[nH]cn2)NC(=O)[C@H](C)NC(=O)CNC(=O)[C@H](Cc2c[nH]c3ccccc23)NC(=O)[C@H](CC(=O)O)NC(=O)[C@H](CCC(N)=O)NC(=O)[C@H](Cc2c[nH]c3ccccc23)NC(=O)[C@H](C(C)C)NC1=O [Cp01-Arg11Ser] (Ac-ICVWQDWGAHSCT-NH2; disulfide 2-12)
		5.4(1.5) 10^5 M^–1 s^–1	11(1) 10^–2 s^–1	219 nM			CC[C@H](C)[C@H](NC(C)=O)C(=O)N[C@H]1CSSC[C@@H](C(=O)N[C@H](C(N)=O)[C@@H](C)O)NC(=O)[C@H](CCCNC(=N)N)NC(=O)[C@H](Cc2c[nH]cn2)NC(=O)[C@H](C)NC(=O)CNC(=O)[C@H](Cc2c[nH]c3ccccc23)NC(=O)[C@H](CC(N)=O)NC(=O)[C@H](CCC(N)=O)NC(=O)[C@H](Cc2c[nH]c3ccccc23)NC(=O)[C@H](C(C)C)NC1=O [Cp01-Asp6Asn] (Ac-ICVWQNWGAHRCT-NH2; disulfide 2-12)
	10 fold	1.2(0.5) 10^5 M^–1 s^–1	23(4) 10^–2 s^–1				CC[C@H](C)[C@H](NC(C)=O)C(=O)N[C@H]1CSSC[C@@H](C(=O)N[C@H](C(N)=O)[C@@H](C)O)NC(=O)[C@H](CCCNC(=N)N)NC(=O)[C@H](Cc2c[nH]cn2)NC(=O)[C@H](C)NC(=O)CNC(=O)[C@H](Cc2c[nH]c3ccccc23)NC(=O)[C@H](CCCCCC(=O)O)NC(=O)[C@H](CCC(N)=O)NC(=O)[C@H](Cc2c[nH]c3ccccc23)NC(=O)[C@H](C(C)C)NC1=O [Cp01-Asp6Asu] (Ac-ICVWQ[Asu]WGAHRCT-NH2; disulfide 2-12)
	2 fold	3.8(1.6) 10^5 M^–1 s^–1	18(2) 10^–2 s^–1	528 nM			CC[C@H](C)[C@H](NC(C)=O)C(=O)N[C@H]1CSSC[C@@H](C(=O)N[C@H](C(N)=O)[C@@H](C)O)NC(=O)[C@H](CCCNC(=N)N)NC(=O)[C@H](Cc2c[nH]cn2)NC(=O)[C@H](C)NC(=O)CNC(=O)[C@H](Cc2c[nH]c3ccccc23)NC(=O)[C@H](CCC(=O)O)NC(=O)[C@H](CCC(N)=O)NC(=O)[C@H](Cc2c[nH]c3ccccc23)NC(=O)[C@H](C(C)C)NC1=O [Cp01-Asp6Glu] (Ac-ICVWQEWGAHRCT-NH2; disulfide 2-12)
		3.1(0.9) 10^5 M^–1 s^–1	18(3) 10^–2 s^–1	609 nM			CC[C@H](C)[C@H](NC(C)=O)C(=O)N[C@H]1CSSC[C@@H](C(=O)N[C@H](C(N)=O)[C@@H](C)O)NC(=O)[C@H](CCCNC(=N)N)NC(=O)[C@H](Cc2c[nH]cn2)NC(=O)[C@H](C)NC(=O)CNC(=O)[C@H](Cc2c[nH]c3ccccc23)NC(=O)[C@H](CO)NC(=O)[C@H](CCC(N)=O)NC(=O)[C@H](Cc2c[nH]c3ccccc23)NC(=O)[C@H](C(C)C)NC1=O [Cp01-Asp6Ser] (Ac-ICVWQSWGAHRCT-NH2; disulfide 2-12)
> 2000 nM					no detectable target binding		CC[C@H](C)[C@H](NC(C)=O)C(=O)N[C@H]1CSSC[C@@H](C(=O)N[C@H](C(N)=O)[C@@H](C)O)NC(=O)[C@H](CCCNC(=N)N)NC(=O)[C@H](Cc2c[nH]cn2)NC(=O)[C@H](C)NC(=O)CNC(=O)[C@H](Cc2c[nH]c3ccccc23)NC(=O)[C@H](CC(=O)O)NC(=O)[C@H](CCCCN)NC(=O)[C@H](Cc2c[nH]c3ccccc23)NC(=O)[C@H](C(C)C)NC1=O [Cp01-Gln5Lys] (Ac-ICVWKDWGAHRCT-NH2; disulfide 2-12)
> 2000 nM					no detectable target binding		CC[C@H](C)[C@H](NC(C)=O)C(=O)N[C@H]1CSSC[C@@H](C(=O)N[C@H](C(N)=O)[C@@H](C)O)NC(=O)[C@H](CCCNC(=N)N)NC(=O)[C@H](Cc2c[nH]cn2)NC(=O)[C@H](C)NC(=O)CNC(=O)[C@H](Cc2c[nH]c3ccccc23)NC(=O)[C@H](CC(=O)O)NC(=O)[C@H](CCCN)NC(=O)[C@H](Cc2c[nH]c3ccccc23)NC(=O)[C@H](C(C)C)NC1=O [Cp01-Gln5Orn] (Ac-ICVW[Orn]DWGAHRCT-NH2; disulfide 2-12)
> 2000 nM					diminished target binding		CC[C@H](C)[C@H](NC(C)=O)C(=O)N[C@H]1CSSC[C@@H](C(=O)N[C@H](C(N)=O)[C@@H](C)O)NC(=O)[C@H](CCCNC(=N)N)NC(=O)[C@H](Cc2c[nH]cn2)NC(=O)[C@H](C)NC(=O)[C@H](C)NC(=O)[C@H](Cc2c[nH]c3ccccc23)NC(=O)[C@H](CC(=O)O)NC(=O)[C@H](CCC(N)=O)NC(=O)[C@H](Cc2c[nH]c3ccccc23)NC(=O)[C@H](C(C)C)NC1=O [Cp01-Gly8Ala] (Ac-ICVWQDWAAHRCT-NH2; disulfide 2-12)
> 16000 nM					diminished target binding		CC[C@H](C)[C@H](NC(C)=O)C(=O)N[C@H]1CSSC[C@@H](C(=O)N[C@H](C(N)=O)[C@@H](C)O)NC(=O)[C@H](CCCNC(=N)N)NC(=O)[C@H](Cc2c[nH]cn2)NC(=O)[C@H](C)NC(=O)[C@@H](C)NC(=O)[C@H](Cc2c[nH]c3ccccc23)NC(=O)[C@H](CC(=O)O)NC(=O)[C@H](CCC(N)=O)NC(=O)[C@H](Cc2c[nH]c3ccccc23)NC(=O)[C@H](C(C)C)NC1=O [Cp01-Gly8dAla] (Ac-ICVWQDW[dA]AHRCT-NH2; disulfide 2-12)
> 16000 nM						strongly impaired affinity	CC[C@H](C)[C@H](NC(C)=O)C(=O)N[C@H]1CSSC[C@@H](C(=O)N[C@H](C(N)=O)[C@@H](C)O)NC(=O)[C@H](CCCNC(=N)N)NC(=O)[C@H](Cc2c[nH]cn2)NC(=O)[C@H](C)NC(=O)CNC(=O)[C@H](Cc2csc3ccccc23)NC(=O)[C@H](CC(=O)O)NC(=O)[C@H](CCC(N)=O)NC(=O)[C@H](Cc2c[nH]c3ccccc23)NC(=O)[C@H](C(C)C)NC1=O [Cp01-Trp7Bta] (Ac-ICVWQD[Bta]GAHRCT-NH2; disulfide 2-12)
